Test results: patent US20240381872A1, “SUBSTITUTED 2,3-DIHYDRO[1,3]THIAZOLO[4,5-B]PYRIDINES, SALTS THEREOF AND THEIR USE AS HERBICIDALLY ACTIVE SUBSTANCES” (BAYER AKTIENGESELLSCHAFT, priority 2021, published 2024)

Columns and labels:
Type in all cases: in vivo
[1] = system: Echinochloa crus-galli (ECHCG); assay: Herbicidal pre-emergence action, section A (Table A3); conditions: visual grading after ca. 3 weeks vs untreated controls
Method in brief: (§1)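 Double sowings in sandy loam; soil-surface spray of WP/EC aqueous preparations, 0.5% additive, 600 l/ha water. Greenhouse, optimum conditions. Visual % damage at ~3 wk vs untreated (100% = dead, 0% = control-like).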

[2] = system: Poa annua (POAAN); assay: Herbicidal pre-emergence action, section A (Table A7); conditions: visual grading after ca. 3 weeks vs untreated controls
Method in brief: as §1

[3] = system: Kochia scoparia (KCHSC); assay: Herbicidal post-emergence action, section B (Table B4); conditions: application rate 320 g/ha; visual rating about 3 weeks after treatment vs untreated controls
Method in brief: (§2)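 Post-emergence greenhouse test: weeds sown in sandy loam, treated at one-leaf stage 2–3 weeks after sowing with WP or EC formulations sprayed as aqueous suspension/emulsion plus 0.5% additive at 600 L/ha. Activity rated visually versus untreated controls after about 3 weeks (100% = plants dead, 0% = like control).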

[4] = system: Veronica persica (VERPE); assay: Herbicidal post-emergence action, section B (Table B10); conditions: application rate 320 g/ha; visual rating about 3 weeks after treatment vs untreated controls
Method in brief: as §2

[5] = system: Digitaria sanguinalis (DIGSA); assay: Herbicidal pre-emergence action, section A (Table A12); conditions: application rate 1280 g/ha
Method in brief: as §1

[6] = system: Stellaria media (STEME); assay: Herbicidal post-emergence action, section B (Table B9); conditions: application rate 1280 g/ha; visual rating about 3 weeks after treatment vs untreated controls
Method in brief: as §2

[7] = system: Digitaria sanguinalis (DIGSA); assay: Herbicidal post-emergence action, section B (Table B12); conditions: application rate 1280 g/ha; visual rating about 3 weeks after treatment vs untreated controls
Procedure: (§3) Seeds of mono- and dicotyledonous weed plants were placed in plastic pots in sandy loam soil (doubly sown with in each case one species of mono- or dicotyledonous weed plants per pot), covered with soil and cultivated in a greenhouse under controlled growth conditions. 2 to 3 weeks after sowing, the test plants were treated at the one-leaf stage. The compounds of the invention, formulated in the form of wettable powders (WP) or as emulsion concentrates (EC), were applied onto the green parts of the plants as aqueous suspension or emulsion with addition of 0.5% additive at a water application rate of 600 liters per hectare (converted). After the test plants had been kept in the greenhouse under optimum growth conditions for about 3 weeks, the activity of the preparations was rated visually in comparison to untreated controls. For example, 100% activity=the plants have died, 0% activity=like control plants.

[8] = system: Kochia scoparia (KCHSC); assay: Herbicidal pre-emergence action, section A (Table A4); conditions: visual grading after ca. 3 weeks vs untreated controls
Method in brief: as §1

[9] = system: Stellaria media (STEME); assay: Herbicidal pre-emergence action, section A (Table A9); conditions: application rate 320 g/ha
Method in brief: as §1

[10] = system: Matricaria inodora (MATIN); assay: Herbicidal pre-emergence action, section A (Table A6); conditions: application rate 1280 g/ha; visual grading after ca. 3 weeks vs untreated controls
Method in brief: as §1

[11] = system: Setaria viridis (SETVI); assay: Herbicidal pre-emergence action, section A (Table A8); conditions: application rate 1280 g/ha
Method in brief: as §1

[12] = system: Lolium rigidum (LOLRI); assay: Herbicidal pre-emergence action, section A (Table A5); conditions: application rate 320 g/ha; visual grading after ca. 3 weeks vs untreated controls
Method in brief: as §1

[13] = system: Abutilon theophrasti (ABUTH); assay: Herbicidal post-emergence action, section B (Table B1); conditions: application rate 1280 g/ha, rated visually after about 3 weeks
Procedure: as §3

[14] = system: Setaria viridis (SETVI); assay: Herbicidal post-emergence action, section B (Table B8); conditions: application rate 1280 g/ha; visual rating about 3 weeks after treatment vs untreated controls
Procedure: as §3

[15] = system: Poa annua (POAAN); assay: Herbicidal post-emergence action, section B (Table B7); conditions: application rate 1280 g/ha; visual rating about 3 weeks after treatment vs untreated controls
Procedure: as §3

[16] = system: Alopecurus myosuroides (ALOMY); assay: Herbicidal pre-emergence action, section A (Table A2); conditions: application rate 1280 g/ha; visual grading after ca. 3 weeks vs untreated controls
Text: (§4) Seeds of mono- and dicotyledonous weed plants were sown in plastic pots (double sowings with one species of mono- and one species of dicotyledonous weed plants per pot), in sandy loam, and covered with soil. The compounds according to the invention, formulated in the form of wettable powders (WP) or as emulsifiable concentrates (EC), were applied to the surface of the covering soil as aqueous suspension or emulsion, with the addition of 0.5% of an additive, at an application rate of 600 l of water per hectare (converted). Following treatment, the pots were placed in a greenhouse and kept under optimum growth conditions for the test plants. The visual grading of the damage to the test plants was carried out after ca. 3 weeks in comparison to untreated controls (herbicidal effect in percent (%): 100% effect=plants have died off, 0% effect=as control plants).

[17] = system: Veronica persica (VERPE); assay: Herbicidal pre-emergence action, section A (Table A10); conditions: application rate 1280 g/ha
Method in brief: as §1

[18] = system: Amaranthus retroflexus (AMARE); assay: Herbicidal pre-emergence action, section A (Table A11)
Method in brief: as §1

[19] = system: Amaranthus retroflexus (AMARE); assay: Herbicidal post-emergence action, section B (Table B11); conditions: application rate 1280 g/ha; visual rating about 3 weeks after treatment vs untreated controls
Method in brief: as §2

[20] = system: Glycine max (GLXMA); assay: Post-emergence effects on crop plants, section F (Table F4); conditions: Glycine max, 504 h, application rate 80 g/ha, read-out: post-emergence activity against GLXMA in %
Text: (§5) Seeds of mono- and dicotyledonous weed plants and crop plants were sown, in plastic or organic planting pots, in sandy loam, covered with soil and grown in a greenhouse under controlled growth conditions. 2 to 3 weeks after sowing, the test plants were sprayed in the single-leaf stage. The compounds according to the invention, formulated in form of wettable powders (WP) or as emulsifiable concentrates (EC), were sprayed onto the green plant parts as aqueous suspension or emulsion, with the addition of 0.5% of an additive, at an application rate of 600 l of water/ha (converted). The test plants were placed in the greenhouse for ca. 3 weeks under optimum growth conditions, and then the effect of the preparations was assessed visually in comparison with untreated controls (herbicidal effect in percent (%): 100% effect=plants have died off, 0% effect=as control plants). Tables F1 to F4 below show the effects of selected compounds of the general formula (I) according to Table 1 on various crop plants and an application rate corresponding to 320 g/ha or below obtained by the experimental procedure mentioned above.

[21] = system: Amaranthus retroflexus (AMARE); assay: Herbicidal pre-emergence action, section C (Table C11); conditions: Amaranthus retroflexus, pre-emergence, 504 h; application rate 320 g/ha; visual grading after ca. 3 weeks; read-out: pre-emergence activity against AMARE in %
Text: Seeds of mono- and dicotyledonous weed plants and crop plants were sown, in plastic or organic planting pots, in sandy loam and covered with soil. The compounds according to the invention, formulated in the form of wettable powders (WP) or as emulsifiable concentrates (EC), were applied to the surface of the covering soil as aqueous suspension or emulsion, with the addition of 0.5% of an additive, at an application rate of 600 l of water/ha (converted). Following treatment, the pots were placed in a greenhouse and kept under optimum growth conditions for the test plants. The visual grading of the damage to the test plants was carried out after ca. 3 weeks in comparison to untreated controls (herbicidal effect in percent (%): 100% effect=plants have died off, 0% effect=as control plants).

[22] = system: Triticum aestivum (TRZAS); assay: Post-emergence effects on crop plants, section F (Table F2); conditions: Triticum aestivum, 504 h, application rate 320 g/ha, read-out: post-emergence activity against TRZAS in %
Text: as §5

[23] = system: Triticum aestivum (TRZAS); assay: Pre-emergence effects on crop plants, section D (Table D2); conditions: application rate 80 g/ha; visual grading after ca. 3 weeks
Text: (§6) Seeds of mono- and dicotyledonous weed plants and crop plants were sown, in plastic or organic planting pots, in sandy loam and covered with soil. The compounds according to the invention, formulated in the form of wettable powders (WP) or as emulsifiable concentrates (EC), were applied to the surface of the covering soil as aqueous suspension or emulsion, with the addition of 0.5% of an additive, at an application rate of 600 l of water/ha (converted).
(§7) Following treatment, the pots were placed in a greenhouse and kept under optimum growth conditions for the test plants. The visual grading of the damage to the test plants was carried out after ca. 3 weeks in comparison to untreated controls (herbicidal effect in percent (%): 100% effect=plants have died off, 0% effect=as control plants).
(§8) Tables D1 to D5 below show the effects of various compounds of the general formula (I) according to Table 1 on various crop plants and an application rate corresponding to 320 g/ha or below obtained by the experimental procedure mentioned above in Biological Examples, Section C.

[24] = system: Zea mays (ZEAMX); assay: Post-emergence effects on crop plants, section F (Table F1); conditions: Zea mays, 504 h, application rate 320 g/ha, read-out: post-emergence activity against ZEAMX in %
Text: as §5

[25] = system: Glycine max (GLXMA); assay: Pre-emergence effects on crop plants, section D (Table D4); conditions: application rate 80 g/ha; visual grading after ca. 3 weeks
Text: as §6, §7, §8

[26] = system: Abutilon theophrasti (ABUTH); assay: Herbicidal pre-emergence action, section A (Table A1); conditions: application rate 1280 g/ha; visual grading after ca. 3 weeks vs untreated controls
Text: as §4

Cc1ccccc1-c1nc2c(cc1Br)SCN2B1NB(N)N1 [Example I-056]
90%: post-emergence activity against KCHSC in % [3] | post-emergence activity against VERPE in % [4] | post-emergence activity against STEME in % [6] | post-emergence activity against DIGSA in % [7] | pre-emergence activity against STEME in % [9] | pre-emergence activity against MATIN in % [10] | post-emergence activity against ABUTH in % [13] | post-emergence activity against SETVI in % [14] | post-emergence activity against POAAN in % [15] | pre-emergence activity against ALOMY in % [16] | pre-emergence activity against VERPE in % [17] | pre-emergence activity against AMARE in % ([18]; application rate 320 g/ha) | post-emergence activity against AMARE in % [19]
100%: pre-emergence activity against ECHCG in % ([1]; application rate 1280 g/ha) | pre-emergence activity against POAAN in % ([2]; application rate 1280 g/ha) | pre-emergence activity against DIGSA in % [5] | pre-emergence activity against KCHSC in % ([8]; application rate 1280 g/ha) | pre-emergence activity against SETVI in % [11] | pre-emergence activity against LOLRI in % [12]

Cc1cc2c(nc1-c1cccc(F)c1F)N(S(C)(=O)=O)CS2(=O)=O [Example I-151, 5-(2,3-difluorophenyl)-3-(methylsulfonyl)-6-methyl-2,3-dihydro[1,3]thiazolo[4,5-b]pyridine 1,1-dioxide]
100%: pest or weed control at 320 g/ha [21]
0%: percent crop plant damage at 80 g/ha [20] | percent crop plant damage (wheat, post-emergence) at 320 g/ha [22] | pre-emergence activity against TRZAS in % (crop plant damage) [23] | percent crop plant damage (phytotoxicity) on Zea mays, post-emergence at 320 g/ha [24] | pre-emergence activity against GLXMA in % (crop plant damage) [25]

Cc1cc2c(nc1-c1cccc(C)c1C)N(C(=O)C1(C)CC(Cl)=NO1)CS2 (stereo not drawn) [Example I-138]
100%: pre-emergence activity against POAAN in % ([2]; application rate 320 g/ha) | pre-emergence activity against SETVI in % [11] | post-emergence activity against AMARE in % [19]
90%: pre-emergence activity against ECHCG in % ([1]; application rate 320 g/ha) | pre-emergence activity against ABUTH in % [26] | post-emergence activity against KCHSC in % [3] | pre-emergence activity against DIGSA in % [5] | post-emergence activity against STEME in % [6] | pre-emergence activity against KCHSC in % ([8]; application rate 320 g/ha) | pre-emergence activity against STEME in % [9] | pre-emergence activity against MATIN in % [10] | post-emergence activity against ABUTH in % [13] | post-emergence activity against POAAN in % [15] | pre-emergence activity against AMARE in % ([18]; application rate 1280 g/ha)
